Laboratory results reported in patent US20250034216A1, “STEREOSELECTIVE COVALENT LIGANDS FOR ONCOGENIC AND IMMUNOLOGICAL PROTEINS” (The Scripps Research Institute, priority 2021, published 2025).

Experiments:
Assay in all cases: IA-DTB cysteine engagement
Assay type in all cases: binding
Settings in all cases: 22Rv1 cells, 20 μM probe, 1 h, relative to DMSO
[1] = molecular target: T1, PDE3B_C311 (Homo sapiens, UniProt Q13370)
T1 construct: endogenous in cells; host or cells: 22Rv1
In short: (§1)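 In-situ probe treatment of cells; lysate 2 mg/mL, IA-DTB 1 h RT; MeOH/CHCl3 precipitation, DTT/iodoacetamide, trypsin; streptavidin enrichment; TMT labeling, high-pH fractionation. Ratio = TMT reporter intensity / mean DMSO channels, median-normalized.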

[2] = molecular target: T2, PRORP_C507 (Homo sapiens, UniProt O15091)
T2 construct: endogenous in cells; host or cells: 22Rv1
T2 sequence (O15091 46-583): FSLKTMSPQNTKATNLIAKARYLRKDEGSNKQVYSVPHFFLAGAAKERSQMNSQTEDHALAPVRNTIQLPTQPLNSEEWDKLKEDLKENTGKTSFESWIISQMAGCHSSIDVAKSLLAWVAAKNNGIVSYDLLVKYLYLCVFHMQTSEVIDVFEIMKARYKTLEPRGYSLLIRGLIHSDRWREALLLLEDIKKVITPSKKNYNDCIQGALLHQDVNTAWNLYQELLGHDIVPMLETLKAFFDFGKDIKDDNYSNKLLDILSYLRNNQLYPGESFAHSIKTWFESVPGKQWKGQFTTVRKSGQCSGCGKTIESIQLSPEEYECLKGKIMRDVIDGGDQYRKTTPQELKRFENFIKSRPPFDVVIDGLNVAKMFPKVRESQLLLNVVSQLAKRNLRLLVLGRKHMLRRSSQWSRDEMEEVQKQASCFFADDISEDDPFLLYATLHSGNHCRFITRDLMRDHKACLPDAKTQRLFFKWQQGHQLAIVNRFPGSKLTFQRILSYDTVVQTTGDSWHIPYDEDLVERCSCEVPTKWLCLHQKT
In short: as §1

[3] = molecular target: T3, LMNA_C570 (Homo sapiens, UniProt P02545)
T3 construct: endogenous in cells; host or cells: 22Rv1
T3 sequence (P02545 1-664): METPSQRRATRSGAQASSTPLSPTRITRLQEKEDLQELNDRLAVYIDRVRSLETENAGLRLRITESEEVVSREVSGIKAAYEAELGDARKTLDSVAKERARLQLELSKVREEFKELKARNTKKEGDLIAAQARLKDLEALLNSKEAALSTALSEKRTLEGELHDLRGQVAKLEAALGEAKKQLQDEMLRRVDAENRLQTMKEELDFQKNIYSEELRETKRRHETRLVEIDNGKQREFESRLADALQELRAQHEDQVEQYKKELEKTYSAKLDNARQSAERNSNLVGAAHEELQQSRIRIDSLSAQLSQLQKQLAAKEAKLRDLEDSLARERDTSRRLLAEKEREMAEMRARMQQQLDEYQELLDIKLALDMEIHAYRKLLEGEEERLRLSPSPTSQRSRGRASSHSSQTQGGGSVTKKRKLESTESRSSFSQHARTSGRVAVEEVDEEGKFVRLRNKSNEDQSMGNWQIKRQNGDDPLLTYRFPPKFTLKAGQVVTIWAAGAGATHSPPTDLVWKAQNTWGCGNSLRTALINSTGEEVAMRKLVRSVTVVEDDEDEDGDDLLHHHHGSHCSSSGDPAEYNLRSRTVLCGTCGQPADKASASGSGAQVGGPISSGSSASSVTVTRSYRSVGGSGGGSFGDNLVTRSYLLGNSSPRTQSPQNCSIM
In short: as §1

T1 sequence (Q13370 whole entry): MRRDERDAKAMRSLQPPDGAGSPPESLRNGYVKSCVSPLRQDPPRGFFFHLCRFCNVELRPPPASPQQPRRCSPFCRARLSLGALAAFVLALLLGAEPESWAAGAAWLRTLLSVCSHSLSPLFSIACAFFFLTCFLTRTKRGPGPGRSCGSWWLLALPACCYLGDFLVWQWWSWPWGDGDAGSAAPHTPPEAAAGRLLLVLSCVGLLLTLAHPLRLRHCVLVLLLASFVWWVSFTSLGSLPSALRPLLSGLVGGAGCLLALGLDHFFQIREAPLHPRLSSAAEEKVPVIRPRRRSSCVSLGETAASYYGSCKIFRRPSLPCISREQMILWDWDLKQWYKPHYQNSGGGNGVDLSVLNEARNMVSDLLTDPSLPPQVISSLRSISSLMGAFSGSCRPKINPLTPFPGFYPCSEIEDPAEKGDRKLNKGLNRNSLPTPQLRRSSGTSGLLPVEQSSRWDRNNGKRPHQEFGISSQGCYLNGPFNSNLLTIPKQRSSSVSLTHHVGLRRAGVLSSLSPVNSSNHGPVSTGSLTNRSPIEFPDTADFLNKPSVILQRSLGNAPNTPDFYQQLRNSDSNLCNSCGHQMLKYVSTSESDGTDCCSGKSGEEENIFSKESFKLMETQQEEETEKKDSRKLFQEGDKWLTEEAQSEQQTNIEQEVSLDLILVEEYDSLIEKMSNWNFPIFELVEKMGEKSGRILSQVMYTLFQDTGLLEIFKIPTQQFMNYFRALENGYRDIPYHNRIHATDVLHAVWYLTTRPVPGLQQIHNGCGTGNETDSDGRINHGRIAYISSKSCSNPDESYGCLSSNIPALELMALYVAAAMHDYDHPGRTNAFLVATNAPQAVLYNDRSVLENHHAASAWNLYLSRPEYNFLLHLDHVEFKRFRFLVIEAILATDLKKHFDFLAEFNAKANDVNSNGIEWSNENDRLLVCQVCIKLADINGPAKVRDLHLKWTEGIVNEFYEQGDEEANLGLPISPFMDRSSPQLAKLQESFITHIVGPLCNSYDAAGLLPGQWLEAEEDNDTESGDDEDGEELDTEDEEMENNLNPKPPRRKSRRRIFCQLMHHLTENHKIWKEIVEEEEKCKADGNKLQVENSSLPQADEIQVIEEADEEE

Compound: C=CC(=O)N1C[C@H](c2ccc(Br)cc2)[C@H]1C(=O)Nc1cccc2cccnc12 [MY-3A, (2S,3S)-1-acryloyl-3-(4-bromophenyl)-N-(quinolin-8-yl)azetidine-2-carboxamide]
- % engagement PDE3B_C311 [1]: 49%
- % engagement PRORP_C507 [2]: 1.25%
- % engagement LMNA_C570 [3]: 75.5%

Compound: C=CC(=O)N1C[C@@H](c2ccc(Br)cc2)[C@H]1C(=O)Nc1cccc2cccnc12 [MY-1A, (2S,3R)-1-acryloyl-3-(4-bromophenyl)-N-(quinolin-8-yl)azetidine-2-carboxamide]
- % engagement PDE3B_C311 [1]: 57.5%
- % engagement PRORP_C507 [2]: 6.75%
- % engagement LMNA_C570 [3]: 75%

Compound: C=CC(=O)N1C[C@H](c2ccc(Br)cc2)[C@@H]1C(=O)Nc1cccc2cccnc12 [MY-1B, (2R,3S)-1-acryloyl-3-(4-bromophenyl)-N-(quinolin-8-yl)azetidine-2-carboxamide]
- % engagement PDE3B_C311 [1]: 58%
- % engagement PRORP_C507 [2]: 74.25%
- % engagement LMNA_C570 [3]: 70.5%

Compound: C=CC(=O)N1C[C@H](c2ccc(Br)cc2)[C@H]1C(=O)Nc1cccc2cccnc12 [MY-3B, (2S,3S)-1-acryloyl-3-(4-bromophenyl)-N-(quinolin-8-yl)azetidine-2-carboxamide]
- % engagement PDE3B_C311 [1]: 75.5%
- % engagement PRORP_C507 [2]: 34.5%
- % engagement LMNA_C570 [3]: 70.5%
